The text below walks through data of patent US20210198277A1, “AMINE-SUBSTITUTED ARYL OR HETEROARYL COMPOUNDS” (Epizyme, Inc., priority 2016, published 2021).

The structures appear in SMILES notation. Bounds are passed on as bounds.

In general, IC50 refers to the point on the concentration scale where inhibition reaches its midpoint.

One assay has as its target T1, EHMT1 (Homo sapiens, UniProt Q9H9B1).
T1 sequence (Q9H9B1 1-1298): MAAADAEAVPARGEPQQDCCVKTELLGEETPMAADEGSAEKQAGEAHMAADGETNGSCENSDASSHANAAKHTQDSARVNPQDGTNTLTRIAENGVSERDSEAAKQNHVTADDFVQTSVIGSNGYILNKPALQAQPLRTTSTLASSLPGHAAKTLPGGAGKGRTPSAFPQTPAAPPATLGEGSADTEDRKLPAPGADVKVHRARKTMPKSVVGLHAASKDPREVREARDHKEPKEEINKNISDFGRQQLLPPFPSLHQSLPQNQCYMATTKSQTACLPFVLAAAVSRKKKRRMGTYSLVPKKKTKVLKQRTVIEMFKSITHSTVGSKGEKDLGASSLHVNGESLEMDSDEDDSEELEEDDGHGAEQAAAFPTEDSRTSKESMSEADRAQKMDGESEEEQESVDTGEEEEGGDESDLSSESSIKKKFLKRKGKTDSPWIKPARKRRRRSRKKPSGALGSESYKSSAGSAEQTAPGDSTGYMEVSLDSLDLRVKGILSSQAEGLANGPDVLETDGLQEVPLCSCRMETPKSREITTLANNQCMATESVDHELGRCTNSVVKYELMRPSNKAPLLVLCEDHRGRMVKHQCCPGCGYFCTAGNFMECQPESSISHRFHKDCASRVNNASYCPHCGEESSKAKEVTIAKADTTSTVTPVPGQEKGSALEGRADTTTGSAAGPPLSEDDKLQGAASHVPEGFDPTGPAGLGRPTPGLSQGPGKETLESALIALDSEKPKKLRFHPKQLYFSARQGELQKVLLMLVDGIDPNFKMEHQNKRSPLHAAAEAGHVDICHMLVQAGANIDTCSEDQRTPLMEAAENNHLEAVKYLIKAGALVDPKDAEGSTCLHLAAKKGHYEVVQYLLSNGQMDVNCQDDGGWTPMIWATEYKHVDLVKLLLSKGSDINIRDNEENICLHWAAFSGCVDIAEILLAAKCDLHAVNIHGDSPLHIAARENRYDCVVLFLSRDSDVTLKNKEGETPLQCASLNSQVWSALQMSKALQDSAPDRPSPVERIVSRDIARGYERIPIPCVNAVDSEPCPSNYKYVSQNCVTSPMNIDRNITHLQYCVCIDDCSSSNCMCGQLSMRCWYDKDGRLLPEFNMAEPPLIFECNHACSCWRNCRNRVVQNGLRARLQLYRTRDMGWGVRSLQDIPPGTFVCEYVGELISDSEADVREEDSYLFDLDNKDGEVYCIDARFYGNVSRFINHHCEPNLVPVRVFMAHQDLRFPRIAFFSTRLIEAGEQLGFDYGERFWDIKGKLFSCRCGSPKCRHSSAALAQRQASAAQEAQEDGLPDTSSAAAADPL
Description: EHMT1 enzyme assay on peptide substrate (EHMT1 PEP). The note with it: Table VI; read-out: EHMT1 PEP IC50. The class given is biochemical.

The next assay addresses T2, human EHMT2 913-1193 (Homo sapiens, UniProt Q96KQ7).
T2 construct: recombinant purified human EHMT2 913-1193, Viva; purchased Viva
T2 sequence (Q96KQ7 913-1193): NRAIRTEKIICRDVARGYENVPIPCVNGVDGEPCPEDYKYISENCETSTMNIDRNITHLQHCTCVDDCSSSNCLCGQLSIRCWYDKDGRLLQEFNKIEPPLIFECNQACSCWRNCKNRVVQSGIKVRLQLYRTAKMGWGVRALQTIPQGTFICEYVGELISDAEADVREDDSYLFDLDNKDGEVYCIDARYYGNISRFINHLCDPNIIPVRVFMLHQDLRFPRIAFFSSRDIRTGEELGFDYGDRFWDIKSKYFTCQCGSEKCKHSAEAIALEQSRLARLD
Description: EHMT2 enzyme assay on histone peptide substrate (EHMT2 PEP). The class given is biochemical. The note with it: Table VI; read-out: EHMT2 PEP IC50. The procedure, abridged:
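Compounds were tested as 3-fold dilutions, 10 points from a 50 μM final top (2% DMSO), after 30-min preincubation with 0.031 nM enzyme in Bicine buffer pH 7.5. Transfer of ^3H-methyl from ^3H-SAM to biotinylated histone peptide ran 60 min at room temperature and was detected by streptavidin Flashplate scintillation.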

For the molecule `CNc1cc(C)nc(Nc2ccc(OC)c(CNCCN3CCCC3)c2)n1` [Compound 644, 2-N-[4-methoxy-3-([[2-(pyrrolidin-1-yl)ethyl]amino]methyl)phenyl]-4-N,6-dimethylpyrimidine-2,4-diamine], the IC50 at EHMT1 and at human EHMT2 913-1193 was < 100 nM throughout.

Take `CNc1nc(C2CCCN(C)C2)c2cc(OC)c(OCCCN3CCCC3)cc2n1` (stereo not drawn) [Compound 746]: the concentration for half-maximal inhibition (IC50) on EHMT1 and on human EHMT2 913-1193 was 100 to 1000 nM throughout.

For `CCc1cc(NC)nc(Nc2ccc(OC)c(OC[C@@H]3CCN(CC)C3)c2)n1` [Compound 671], the values for the IC50 at EHMT1 and at human EHMT2 913-1193 were < 100 nM and 100 to 1000 nM, respectively.

Regarding `COc1cc(N(C)C2CCN(C)CC2)ncc1OCC1CCNC1` (stereo not drawn) [Compound 1042], the concentration for half-maximal inhibition (IC50) at EHMT1 and at human EHMT2 913-1193 was 1000 to 10000 nM throughout.

In the case of `COc1cc(N(C)C2CCNCC2)ncc1OCC1CCN(C)C1` (stereo not drawn) [Compound 635], the concentration for half-maximal inhibition (IC50) at EHMT1 and at human EHMT2 913-1193 was 1000 to 10000 nM in each case.

Take `CC(C)N1CC(COc2cnc(NC3CCNCC3)nc2)C1` [Compound 636]: the concentration for half-maximal inhibition (IC50) on EHMT1 and at human EHMT2 913-1193 was > 10000 nM each time.

Turning to `COc1cc2c(C3CCOCC3)cc(-c3cn[nH]c3)nc2cc1OCCCN1CCCC1` [Compound 679], the concentration for half-maximal inhibition (IC50) at EHMT1 and at human EHMT2 913-1193 was 1000 to 10000 nM throughout.

As for `CNCCNCc1cc(Nc2nccc(NC)n2)ccc1OC` [Compound 1034], the IC50 on EHMT1 and on human EHMT2 913-1193 was 100 to 1000 nM in each case.

On to `CNc1ccnc(Nc2ccc(OC)c(CNC[C@H]3CCCN3)c2)n1` [Compound 1020], for which the IC50 on EHMT1 and on human EHMT2 913-1193 was 1000 to 10000 nM each time.

Take `CNc1cc(C)nc(Nc2cnc(OC)c(CNCCN3CCCC3)c2)n1` [Compound 1031]: the IC50 on EHMT1 is < 100 nM; at human EHMT2 913-1193, 100 to 1000 nM.

As to `CCN1CCC(NCc2cc(Nc3nc(C)cc(NC)n3)ccc2OC)C1` (stereo not drawn) [Compound 646], the half-maximal inhibitory concentration (IC50) on EHMT1 and on human EHMT2 913-1193 was 1000 to 10000 nM in each case.

For the molecule `COc1cnc(Nc2cccc3[nH]ncc23)nc1OCCCN1CCCC1` [Compound 655], the half-inhibitory concentration (IC50) on EHMT1 and on human EHMT2 913-1193 was > 10000 nM each time.
